Laboratory results reported in ChEMBL document CHEMBL1201862, “PubChem BioAssay data set” (2004).
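Tested at 5 concentrations; 48 h exposure; 96-well plates; endpoints linearly interpolated, else capped at highest concentration. GI50 marks 50% less growth.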 Activity calls are given as the source filed them. Rule as the data show it: active = GI50 up to about 1.1 µM and inactive = higher.

Tests used:
Experiment in all cases: growth of human tumour cells (NCI), 48 h
HOP-62 = tested on: HOP-62
HOP-92 = tested on: HOP-92
IGROV-1 = tested on: IGROV-1
KM12 = tested on: KM12
LOX IMVI = tested on: LOX IMVI
MCF7 = tested on: MCF7
MOLT-4 = tested on: MOLT-4
Malme-3M = tested on: Malme-3M
NCI-H522 = tested on: NCI-H522
NCI/ADR-RES = tested on: NCI/ADR-RES
OVCAR-3 = tested on: OVCAR-3
OVCAR-4 = tested on: OVCAR-4
RPMI-8226 = tested on: RPMI-8226
RXF 393 = tested on: RXF 393
SF-268 = tested on: SF-268
SK-MEL-28 = tested on: SK-MEL-28
SK-OV-3 = tested on: SK-OV-3
SW-620 = tested on: SW-620
UACC-257 = tested on: UACC-257
UACC-62 = tested on: UACC-62

Measured: GI50

CC1(C)CCC(C)(C)c2c1ccc(O)c2Cc1c(O)ccc2c1C(C)(C)CCC2(C)C
inactive: HOP-62 2190 nM | HOP-92 1950 nM | IGROV-1 1970 nM | KM12 1950 nM | LOX IMVI 1840 nM | MCF7 1840 nM | MOLT-4 2110 nM | Malme-3M 2700 nM | NCI-H522 1970 nM | NCI/ADR-RES 2080 nM | OVCAR-3 2210 nM | OVCAR-4 1810 nM | RPMI-8226 1870 nM | RXF 393 1870 nM | SF-268 2470 nM | SK-MEL-28 2120 nM | SK-OV-3 2300 nM | SW-620 2180 nM | UACC-257 1850 nM | UACC-62 2020 nM
